The text below walks through data of PMC6154598, “Alkamides from Anacyclus pyrethrum L. and Their in Vitro Antiprotozoal Activity” (Molecules : A Journal of Synthetic Chemistry and Natural …, 2017).

Data set [1] has as its system P. falciparum (NF54 IEF). On the set-up: method as in PMID 24853616. As to conditions: previously reported data; cited from earlier work.
Data set [2] relates to L. donovani (MHOM-ET-67/L82 strain, axenic amastigotes). As to the kind of experiment: In vitro antiprotozoal activity against L. donovani. Type of data set: cell-based, Leishmania donovani. The settings on record: for SI Ld: ratio of cytotoxic (L6) over antiprotozoal IC50 (Ld). The method, then: (§1) Tests for antiprotozoal activities were carried out using established standard protocols at the Swiss Tropical and Public Health Institute (Swiss TPH, Basel, Switzerland). The assays and the IC50 determinations were performed essentially as described previously. The compounds used as positive controls in the various bioassays (see Table 1) were of commercial origin, with the exception of melarsoprol, which was a gift from the WHO. Their purity (generally >95%) was specified by the manufacturers. The purity of test compounds was assessed by UHPLC/MS analyses and found to be >90% in case of compounds 1–6 and >80% in case of 7. Compounds 8 + 9 represented a mixture in a ratio of approximately 1:4 (Figure S10).

For data set [3], the system named is T. cruzi (Tulahuen C4 strain; intracellular amastigotes). As to the kind of experiment: In vitro antiprotozoal activity against T. cruzi. In kind it is cell-based, Trypanosoma cruzi. The method, then: as §1
The subject of data set [4] is P. falciparum (NF54 IEF). The experiment in a line: In vitro antiprotozoal activity against P. falciparum. In kind it is cell-based, Plasmodium falciparum. The settings on record: for SI Pf: ratio of cytotoxic (L6) over antiprotozoal IC50 (Pf). The method, then:
as §1

Data set [5] deals with T. b. rhodesiense (STIB 900 strain, bloodstream trypomastigotes). As to the kind of experiment: In vitro antiprotozoal activity against T. b. rhodesiense. In kind it is cell-based, Trypanosoma brucei rhodesiense. The settings on record: for SI Tbr: ratio of cytotoxic (L6) over antiprotozoal IC50 (Tbr). On the procedure:
as §1

Data set [6] in a line: Cytotoxicity against L6 rat skeletal myoblasts. Type of data set: cell-based. On the procedure:
as §1

Data set [7] concerns L6 rat skeletal myoblast cell line. As to the kind of experiment: Cytotoxicity against L6 rat skeletal myoblasts. Type of data set: cell-based. On the procedure:
as §1

Setting [8] is: Leishmania donovani, MHOM-ET-67/L82 strain, axenic amastigotes, mean of two determinations ± deviation, read-out: IC50 Ld.
Setting [9] is: Leishmania donovani, MHOM-ET-67/L82 strain, axenic amastigotes, value in μM of pure compound, read-out: IC50 Ld (in brackets).
Where [10] appears, read: Trypanosoma cruzi, Tulahuen C4 strain, intracellular amastigotes, mean of two determinations ± deviation, read-out: IC50 Tc.
Setting [11] is: Trypanosoma cruzi, Tulahuen C4 strain, intracellular amastigotes, value in μM of pure compound, read-out: IC50 Tc (in brackets).
[12] abbreviates: Plasmodium falciparum, NF54, NF54 IEF, mean of two determinations ± deviation, read-out: IC50 Pf.
Where [13] appears, read: Plasmodium falciparum, NF54, NF54 IEF, value in μM of pure compound, read-out: IC50 Pf (in brackets).
Setting [14] is: Trypanosoma brucei, STIB 900 strain, bloodstream trypomastigotes, mean of two determinations ± deviation, read-out: IC50 Tbr.
Where [15] appears, read: Trypanosoma brucei, STIB 900 strain, bloodstream trypomastigotes, value in μM of pure compound, read-out: IC50 Tbr (in brackets).
[16] abbreviates: rat, IC50 Cytotox (in brackets).
The mark [17] stands for this setting: Plasmodium falciparum, NF54, read-out: IC50 Pf.
The mark [18] stands for this setting: Plasmodium falciparum, NF54, read-out: IC50 Pf (in brackets).
The mark [19] stands for this setting: L6 rat skeletal myoblast cell line, mean of two determinations ± deviation, read-out: IC50 Cytotox.
Setting [20] is: L6 rat skeletal myoblast cell line, value in μM of pure compound, read-out: IC50 Cytotox (in brackets).
[21] abbreviates: NF54 IEF, mean of two determinations ± deviation.

Converted amounts (≈) assume the structure as drawn. Where two headings read alike, the source gives them in different places. A value given as a limit tells only on which side of the number the result lay.

For `CCCCC/C=C/C=C/C(=O)NCC(C)C` [Compound 2, deca-2E,4E-dienoic acid isobutylamide], the “IC50 Pf” value with P. falciparum (NF54 IEF) [1] is 3.3 µg/mL (≈ 14.8 µM).

As to `C=CCCC/C=C/C=C/C(=O)NCC(C)C` [Compound 3, deca-2E,4E,9-trienoic acid isobutylamide], the IC50 in data set [2] (setting [8]) is 4.77 ± 1.02 µg/mL; in data set [2] (setting [9]), 21.6 µM; in data set [3] (setting [10]), 39.9 µg/mL; in data set [3] (setting [11]) it was 181 µM; with P. falciparum (NF54 IEF) [4] (setting [12]), 7.13 ± 0.63 µg/mL; in the data set on P. falciparum (NF54 IEF) [4] (setting [13]) it was 32.2 µM. For the same molecule, the IC50 was found to be 2.91 ± 0.21 µg/mL in data set [5] (setting [14]); 13.2 µM in data set [5] (setting [15]); 16.7 ± 0.1 µg/mL in data set [6] (rat, IC50 Cytotox); 75.3 µM in data set [6] (setting [16]). The “SI Ld” value in data set [2] stood at 3.5. Also, in the data set with P. falciparum (NF54 IEF) [4], the “SI Pf” value is given as 2.3. Besides, in data set [5], the “SI Tbr” value is listed as 5.7.

With `CCCCC/C=C/C=C/C(=O)NCCc1ccccc1` [Compound 4, deca-2E,4E-dienoic acid 2-phenylethylamide], the IC50 was 2.97 ± 0.54 µg/mL in data set [2] (Leishmania donovani, read-out: IC50 Ld); 11 µM in data set [2] (Leishmania donovani, read-out: IC50 Ld (in brackets)); 5.02 ± 0.05 µg/mL in data set [3] (Trypanosoma cruzi, TULAHUEN, read-out: IC50 Tc); 18.5 µM in data set [3] (setting [11]); > 5 µg/mL in the data set with P. falciparum (NF54 IEF) [4] (setting [17]); > 18 µM with P. falciparum (NF54 IEF) [4] (setting [18]). Moreover, the IC50 in data set [5] (setting [14]) is 4.03 µg/mL; in data set [5] (setting [15]) it was 14.9 µM; in data set [6] (setting [19]), 7.88 µg/mL; in data set [6] (setting [20]) it was 29.1 µM. Besides, the “SI Ld” value in data set [2] is 2.7. Besides, the “SI Tbr” value in data set [5] is 2.0.

In the case of `C/C=C\C#CC#CCC/C=C/C=C/C(=O)NCC(C)C` [Compound 6, tetradeca-2E,4E,12Z-trien-8,10-diynoic acid isobutylamide], the IC50 in data set [2] (setting [8]) is 5.04 ± 1.17 µg/mL; in data set [2] (setting [9]), 18.7 µM; in data set [3] (setting [10]) it was 38.8 ± 2.1 µg/mL; in data set [3] (setting [11]) it was 144 µM; in the data set with P. falciparum (NF54 IEF) [4] (setting [12]), 7.19 ± 0.49 µg/mL; in the data set with P. falciparum (NF54 IEF) [4] (setting [13]), 26.7 µM. In addition, the IC50 in data set [5] (setting [14]) is 6.37 ± 0.94 µg/mL; in data set [5] (setting [15]), 23.7 µM; in data set [6] (rat, IC50 Cytotox), 19.4 ± 1.7 µg/mL; in data set [6] (setting [16]) it was 72.2 µM. In addition, the “SI Ld” value in data set [2] came out at 3.9. In the data set on P. falciparum (NF54 IEF) [4], the “SI Pf” value is recorded as 2.7. In data set [5], the “SI Tbr” value is 3.1.

Consider `CCCCCCC/C=C/C=C/C(=O)NCCc1ccc(O)cc1` [Compound 7, Dodeca-2E,4E-dienoic acid 4-hydroxy-2-phenylethylamide], for which the IC50 in data set [2] (setting [8]) was determined as 4.19 ± 1.64 µg/mL; in data set [2] (setting [9]) it was 13.3 µM; in data set [3] (Trypanosoma cruzi, TULAHUEN, read-out: IC50 Tc (in brackets)) it was 5.97 µM; in data set [3] (setting [10]), 1.88 µg/mL; in the data set with P. falciparum (NF54 IEF) [4] (setting [12]), 3.2 µg/mL; in the data set on P. falciparum (NF54 IEF) [4] (setting [13]) it was 10.1 µM. In addition, the IC50 in data set [5] (setting [14]) is 2.26 ± 0.18 µg/mL; in data set [5] (setting [15]) it was 7.17 µM; in data set [6] (rat, IC50 Cytotox), 0.2 µg/mL; in data set [6] (setting [16]), 0.69 µM. In data set [2], the “SI Ld” value is given as <0.1. The “IC50 Pf” value in the data set on P. falciparum (NF54 IEF) [4] (setting [21]) came out at 3.18 ± 0.20 µg/mL (≈ 10.1 µM). Moreover, in the data set on P. falciparum (NF54 IEF) [4], the “SI Pf” value is on record as <0.1. For the same molecule, the “SI Tbr” value in data set [5] was determined as 0.1. In data set [7] (rat), the “IC50 Cytotox” value amounted to 0.19 ± 0.05 µg/mL (≈ 0.602 µM).

With `CCN(CC)CCCC(C)Nc1ccnc2cc(Cl)ccc12` (stereo not drawn) [chloroquine, reference compound], the concentration for half-maximal inhibition (IC50) with P. falciparum (NF54 IEF) [4] (setting [17]) is 0.08 ± 0.003 µg/mL; with P. falciparum (NF54 IEF) [4] (setting [18]) it was 0.25 µM.

Consider `Nc1nc(N)nc(Nc2ccc([As]3SCC(CO)S3)cc2)n1` (stereo not drawn) [melarsoprol, reference compound], for which the IC50 in data set [5] (Trypanosoma brucei, read-out: IC50 Tbr) was 0.003 ± 0.001 µg/mL; in data set [5] (Trypanosoma brucei, read-out: IC50 Tbr (in brackets)), 0.008 µM.

On to `CCCCCCCCCCCCCCCCOP(=O)([O-])OCC[N+](C)(C)C` [miltefosine, reference compound], for which the IC50 in data set [2] (setting [8]) was 0.127 ± 0.052 µg/mL; in data set [2] (setting [9]) it was 0.312 µM.

For the molecule `COc1cc([C@@H]2c3cc4c(cc3[C@H](O)[C@H]3COC(=O)[C@H]23)OCO4)cc(OC)c1OC` [podophyllotoxin, reference compound], the IC50 in data set [6] (setting [19]) worked out at 0.008 ± 0.001 µg/mL; in data set [6] (setting [20]), 0.019 µM.

Consider “undeca-2E,4E-dien-8,10-diynoic acid isopentylamide [Compound 5]”, for which, in data set [2] (MHOM-ET-67/L82 strain, axenic amastigotes, mean of two determinations ± deviation), the “IC50 Ld” value was found to be 4.04 ± 0.71 µg/mL. The IC50 was 16.6 µM in data set [2] (MHOM-ET-67/L82 strain, axenic amastigotes, value in μM of pure compound, read-out: IC50 Ld (in brackets)); 66.9 µM in data set [3] (Tulahuen C4 strain, intracellular amastigotes, value in μM of pure compound, read-out: IC50 Tc (in brackets)); 42.5 µM in the data set on P. falciparum (NF54 IEF) [4] (NF54 IEF, value in μM of pure compound, read-out: IC50 Pf (in brackets)); 18.9 µM in data set [5] (STIB 900 strain, bloodstream trypomastigotes, value in μM of pure compound, read-out: IC50 Tbr (in brackets)); 116 µM in data set [7]. Further, the “SI Ld” value in data set [2] came to 7.0. Besides, the “IC50 Tc” value in data set [3] (Tulahuen C4 strain, intracellular amastigotes, mean of two determinations ± deviation) was found to be 16.3 ± 0.3 µg/mL. In the data set on P. falciparum (NF54 IEF) [4] (setting [21]), the “IC50 Pf” value is 10.3 ± 1.4 µg/mL. Besides, in the data set on P. falciparum (NF54 IEF) [4], the “SI Pf” value stood at 2.7. The “IC50 Tbr” value in data set [5] (STIB 900 strain, bloodstream trypomastigotes, mean of two determinations ± deviation) came out at 4.59 ± 0.39 µg/mL. Also, the “SI Tbr” value in data set [5] is 6.2. In addition, the “IC50 Cytotox” value in data set [7] is 28.2 ± 6.9 µg/mL.

Broadly, the IC50 is the concentration needed to halve the response being measured.
